Laboratory results as given in patent US8501816B2, “Antitussive compositions comprising memantine” (Cerecor, Inc., priority 2010, dated 2013).
Marks after values point to notes of the source that are not given here.

Columns and labels:
[1] = test system: citric acid induced cough; assay: Citric acid induced cough in conscious guinea pigs; details: for Effect on cumulative number of coughs evoked by lower concentrations of citric acid (0.01-0.1 M): 30 mg/kg; for Cumulative numbers of cough, median, citric acid 0.01M / Cumulative numbers of cough, median, citric acid 0.1M / Cumulative numbers of cough, median, citric acid 0.3M / Effect on cumulative number of coughs evoked by citric acid (0.01-0.3M) compared to controls: 30 mg/kg intraperitoneally; for Mean ± sem cumulative coughs / ≧15 Cumulative coughs/total number of guinea pigs: potentially synergistic agents; for Effect of single agent on citric acid (0.01-0.3M) induced cough: oral, 60 minutes prior, memantine 3, guaifenesin 100, diphenhydramine 10, benzonatate 30, ambroxol 100 mg/kg
Experimental: Male Hartley guinea pigs (200-700 g) were studied and all experiments were first approved by the institutional Animal Care and Use Committee.
Animals were placed in a transparent chamber (Buxco Research Systems, Wilmington, N.C.) with a continuous flow of air and exposed to increasing concentrations of citric acid (0.01 M-0.3 M) is delivered by an ultrasonic nebulizer generating aerosol particles of 3-6 μm diameter. Coughs were counted during a 5 minute nebulization period and over the subsequent 5 minutes with the assistance of sound and pressure monitoring from the chamber. Respiratory rate and tidal volume were monitored throughout via a calibrated pressure transducer (Emka Technologies, Falls Church, Va.).
Each of these drugs was administered orally in half-log increments (e.g. 3 mg/kg, 10 mg/kg, 30 mg/kg) in an unpaired experimental design (each animal received only 1 dose of drug). The drugs were administered 60 minutes prior to citric acid challenge, which consisted of 5 minute challenges with aerosols of increasing concentrations of citric acid (0.01-0.3M), with 5 minute intervals in between escalating doses of the tussive stimulus.

[2] = Sedation and side effects observed in the cough studies; details: for Sedation (FIG. 20): 30 mg/kg intraperitoneally; for Animals with mild to moderate sedation: n=8; for Sedation: 50 mg/kg, precluded assessment of cough
[3] = test system: citric acid evoked coughing; assay: Microinjection of NMDA receptor antagonists into the central termination sites of the cough receptors; assay type: in vivo, guinea pig; details: anesthetized guinea pigs
[4] = test system: cough; details: cited from earlier work
[5] = Respiratory parameters during cough challenge; assay type: in vivo, guinea pig; details: 50 mg/kg; controls 117.7(±26.3)
Experimental: Using a similar chamber and nebulizer system, animals were treated first with aerosolized peptidase inhibitors (captopril 0.1 μM and thiorphan 0.1 μM, 5 minutes nebulization) to reduce bradykinin degradation and enhance tussive responses evoked by bradykinin (unpublished observations). Animals were then exposed to increasing concentrations of aerosolized bradykinin (0.1-3 mg/mL), again for 5 minute periods. Coughs are counted during this and the subsequent 5 minutes. Pressure changes within the chamber are used to monitor respiratory rate (Biopac Systems Inc, Goleta, Calif.).

[6] = test system: freezing behavior during cued fear conditioning; assay: Cued fear conditioning in mice; assay type: in vivo; details: diphenhydramine 20 mg/kg IP, p=0.061
Experimental: The effects of memantine on enhancing cognition were investigated with fear conditioning tests on mice. Specifically, the fear conditioning test exposed mice to a conditioned stimulus (a tone) and an unconditioned stimulus (a mild electric shock). The mice learned to associate the tone with the shock as reflected by freezing. After being adequately conditioned, the mice were administered memantine or a control (vehicle alone). […] Fear Conditioning: Fear conditioning mouse chambers (7''W×7''D×12''H; Coulbourne Instruments, […] Valley, Pa.) were housed in sound attenuating chambers. A camera was mounted on the ceiling of the chamber to capture mouse behavior (FreezeFrame software, Coulbourne Instruments, […] Valley, Pa.); data were analyzed by Freezeview software (Coulbourne Instruments, […] Valley, Pa.). Fear conditioning chambers were calibrated prior to each experiment to ensure that each chamber delivers the same shock intensity. […] Pavlovian fear conditioning refers to the learning of associations between a negative reinforcer (e.g., a mild electric foot shock/s), a novel context (e.g. a context) and/or a specific, neutral, cue (e.g., tone or white noise). To assess contextual and cued (tone) learning and memory, a standardized fear conditioning task developed for the evaluation of memory in rodents was used. Protocol: […] Cue-induced Conditioning Testing: Mice were tested for cued memory 48 hours after training. The cued conditioning test was conducted in an altered context (i.e., a different test chamber). […] Statistical Analysis: Data are represented as the mean and standard error to the mean. Data were analyzed by analysis of variance (ANOVA) followed by Fisher PLSD, or unpaired t-tests, when appropriate to test a planned comparison. An effect was considered significant if p<0.05. Statistical outliers that fell above or below two standard deviations from the mean were removed from the final analysis.

[7] = test system: Caco-2 cells; assay: Memantine in vitro intestinal permeability (Caco-2 cells); assay type: in vitro ADME; details: FIG. 12
[8] = in vivo, po; cited from earlier work

Compound: COc1ccc2c(c1)[C@]13CCCC[C@@H]1[C@H](C2)N(C)CC3 [Dextromethorphan]
- Effect on cumulative number of coughs evoked by lower concentrations of citric acid (0.01-0.1 M) [1]: significantly reduced the cumulative number of coughs
- Cumulative numbers of cough, median, citric acid 0.01M [1]: 0.0
- Cumulative numbers of cough, median, citric acid 0.1M [1]: 0.5*
- Cumulative numbers of cough, median, citric acid 0.3M [1]: 7.5
- Effect on cumulative number of coughs evoked by citric acid (0.01-0.3M) compared to controls [1]: failed to produce a statistically significant reduction in cumulative coughs
- Sedation (FIG. 20) [2]: moderate to severe sedation in the majority of animals studied
- Animals with mild to moderate sedation ([2]; 30 mg/kg): 62.5%
- Duration of sedation ([2]; 30 mg/kg, persisted throughout the citric acid challenge): > 2 h
- Sedation [2]: severe sedation
- Effect of microinjection on citric acid evoked coughing [3]: prevents citric acid evoked coughing
- Efficacy in cough associated with upper respiratory tract infections ([4]; Bolser 2006): ineffective
- mean breathing frequency [5]: 90.0(±13.7) breaths/min

Compound: NC(CCCP(=O)(O)O)C(=O)O (stereo not shown) [AP5]
- Effect of microinjection on citric acid evoked coughing [3]: prevents citric acid evoked coughing

Compound: CNC1(c2ccccc2Cl)CCCCC1=O (stereo not shown) [Ketamine]
- Effect on cumulative number of coughs evoked by lower concentrations of citric acid (0.01-0.1 M) [1]: not
- Cumulative numbers of cough, median, citric acid 0.01M [1]: 0.0
- Cumulative numbers of cough, median, citric acid 0.1M [1]: 1.5
- Cumulative numbers of cough, median, citric acid 0.3M [1]: 11.0
- Effect on cumulative number of coughs evoked by citric acid (0.01-0.3M) compared to controls [1]: failed to produce a statistically significant reduction in cumulative coughs
- Sedation (FIG. 20) [2]: moderate to severe sedation in the majority of animals studied
- Time at which sedation reversed ([2]; 30 mg/kg, during the cough challenge): 40-50 minutes post-injection
- Animals with mild to moderate sedation ([2]; 30 mg/kg): 87.5%
- Sedation [2]: severe sedation
- Efficacy in chronic cough patients ([4]; Young et al.): ineffective
- mean breathing frequency [5]: 92.3(±18.8) breaths/min

Compound: CC1CCC(C(C)C)C(O)C1 (stereo not shown) [Menthol]
- Mean ± sem cumulative coughs ([1]; 30 mg/kg po): 21 ± 3
- ≧15 Cumulative coughs/total number of guinea pigs ([1]; 30 mg/kg po): 3/3
- Mean ± sem cumulative coughs ([1]; 100 mg/kg po): 11±2
- ≧15 Cumulative coughs/total number of guinea pigs ([1]; 100 mg/kg po): 1/7

Compound: CN(C)CCOC(c1ccccc1)c1ccccc1 [Diphenhydramine]
- cue-induced fear conditioning, CS phase, vs vehicle-vehicle [6]: strong trend toward decreased cue-induced fear conditioning

Compound: COc1ccccc1OCC(O)CO (stereo not shown) [Guaifenesin, 3-(2-methoxyphenoxy)-1,2-propanediol]
- Mean ± sem cumulative coughs ([1]; 50 mg/kg po): 30 ± 1
- ≧15 Cumulative coughs/total number of guinea pigs ([1]; 50 mg/kg po): 3/3
- Mean ± sem cumulative coughs ([1]; 100 mg/kg po): 20 ± 5
- ≧15 Cumulative coughs/total number of guinea pigs ([1]; 100 mg/kg po): 3/4
- Effect of single agent on citric acid (0.01-0.3M) induced cough [1]: failed to inhibit cough

Compound: CCCCCCCC/C=C\CCCCCCCC(=O)O [oleic acid]
- Effect as permeation enhancer on memantine Caco-2 permeability [7]: ineffective

Compound: N[C@@H](Cc1cc(CP(=O)(O)O)cc(-c2ccccc2Cl)c1)C(=O)O [SDZ220581]
- Effect of microinjection on citric acid evoked coughing [3]: prevents citric acid evoked coughing

Compound: Cc1ccc(-c2nc3ccc(C)cn3c2CC(=O)N(C)C)cc1 [zolpidem]
- orally bioavailable [8]: less than 70%

Compound: Nc1c(Br)cc(Br)cc1CN[C@H]1CC[C@H](O)CC1 [Ambroxol]
- Mean ± sem cumulative coughs ([1]; 100 mg/kg po): 13 ± 4
- ≧15 Cumulative coughs/total number of guinea pigs ([1]; 100 mg/kg po): 2/6
- Effect of single agent on citric acid (0.01-0.3M) induced cough [1]: failed to inhibit cough

Compound: CC(O)CO (stereo not shown) [propylene glycol]
- Effect as permeation enhancer on memantine Caco-2 permeability [7]: ineffective

Compound: CCCCNc1ccc(C(=O)OCCOCCOCCOCCOCCOCCOCCOCCOCCOC)cc1 [Benzonatate]
- Mean ± sem cumulative coughs ([1]; 10 mg/kg po): 24 ± 4
- ≧15 Cumulative coughs/total number of guinea pigs ([1]; 10 mg/kg po): 3/3
- Mean ± sem cumulative coughs ([1]; 30 mg/kg po): 13 ± 4
- ≧15 Cumulative coughs/total number of guinea pigs ([1]; 30 mg/kg po): 2/5
- Effect of single agent on citric acid (0.01-0.3M) induced cough [1]: failed to inhibit cough
